Assays:
ABCH2 [1] = target: T1, ABCH2 (Anopheles coluzzii, UniProt A0A6E8VHH0); assay: malachite green ATPase assay, Sf9 inverted membrane vesicles; type: biochemical; conditions: 120 uM deltamethrin, DMSO/ethanol, 1 mM ATP, MgCl2, Tris pH 8, 37 C, 15 min; empty-bacmid background subtracted; transport not shown directly
T1 construct: full ORF, codon-optimised for S. frugiperda, pFastBac1 baculovirus in Sf9 cells, untagged, membrane vesicles; about 85 kDa half-transporter, proposed homodimer
T1 sequence (A0A6E8VHH0 1-760): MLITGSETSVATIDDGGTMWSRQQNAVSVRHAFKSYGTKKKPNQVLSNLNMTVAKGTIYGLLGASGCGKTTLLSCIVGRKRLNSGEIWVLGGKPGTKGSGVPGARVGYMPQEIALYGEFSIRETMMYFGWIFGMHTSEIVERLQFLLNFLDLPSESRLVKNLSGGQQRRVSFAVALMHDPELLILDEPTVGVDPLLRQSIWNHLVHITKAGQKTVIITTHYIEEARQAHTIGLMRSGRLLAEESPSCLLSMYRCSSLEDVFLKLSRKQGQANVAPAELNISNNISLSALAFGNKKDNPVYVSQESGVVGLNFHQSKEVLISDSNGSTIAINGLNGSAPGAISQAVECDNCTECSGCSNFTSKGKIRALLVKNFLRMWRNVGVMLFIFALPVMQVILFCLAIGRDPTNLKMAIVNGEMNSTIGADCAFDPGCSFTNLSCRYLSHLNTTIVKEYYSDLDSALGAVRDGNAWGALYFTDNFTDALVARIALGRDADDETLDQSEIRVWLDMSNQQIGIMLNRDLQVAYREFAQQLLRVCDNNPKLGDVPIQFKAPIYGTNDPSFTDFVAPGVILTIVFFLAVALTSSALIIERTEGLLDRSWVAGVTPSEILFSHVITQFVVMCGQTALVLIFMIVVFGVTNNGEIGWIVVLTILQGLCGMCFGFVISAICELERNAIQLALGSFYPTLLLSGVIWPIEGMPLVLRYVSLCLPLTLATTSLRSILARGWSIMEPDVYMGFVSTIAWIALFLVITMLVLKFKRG

[2] = target: ABCH2 transporter (ATP-Binding Cassette transporter from the H family) of Anopheles coluzzii (Anopheles coluzzii)
ABCH2 [3] = target: T1, ABCH2; assay: malachite green ATPase assay, Sf9 inverted membrane vesicles; type: biochemical; conditions: basal activity without deltamethrin, 1 mM ATP, MgCl2, Tris pH 8, 37 C, 15 min; empty-bacmid background subtracted

CC1(C)[C@H](C(=O)O[C@H](C#N)c2cccc(Oc3ccccc3)c2)[C@@H]1C=C(Br)Br [deltamethrin]
fold stimulation of basal ATPase activity at 120 uM (ABCH2 [1]): ~ 1.6 fold

ABCH2 transporter (ATP-Binding Cassette transporter from the H family) of Anopheles coluzzii (natural protein)
estimated basal rate of ATP hydrolysis of ABCH2 in inverted membrane vesicles of Sf9 cells expressing ABCH2 on its own (pmoles Pi/pmol ABCH2/minute) [2]: 178

Nc1ncnc2c1ncn2[C@@H]1O[C@H](COP(=O)(O)OP(=O)(O)OP(=O)(O)O)[C@@H](O)[C@H]1O [ATP]
malachite green ATPase assay, Sf9 inverted membrane vesicles (ABCH2 [3]): indicate an ATP hydrolysis specific to ABCH2 expression

Reference: paper PMC10461823, “ABCH2 transporter mediates deltamethrin uptake and toxicity in the malaria vector Anopheles coluzzii” (PLOS Pathogens, 2023)
